From article PMC7261837, “Circumdatin D Exerts Neuroprotective Effects by Attenuating LPS-Induced Pro-Inflammatory Responses and Downregulating Acetylcholinesterase Activity In Vitro and In Vivo” (Frontiers in Pharmacology, 2020)

How the values were obtained:
[1] = test system: AChE in C. elegans CL4176; assay: AChE activity of C. elegans CL4176; assay type: in vivo, Caenorhabditis elegans; conditions: CL4176 nematodes
Description: AChE activity of C. elegans was determined by the method as described ([Xin et al., 2013]). Briefly, approximately 1,000 nematodes with or without circumdatin D treatment were collected and then triturated mechanically in PBS (50 mM, pH 7.4) on ice. The lysate supernatant was collected by centrifugation and AChE activity in the supernatant was determined using modified Ellman method. The protein concentration was determined by BCA protein assay. AChE activity was expressed as U/mg proteins.

[2] = test system: NF-κB; assay: NF-κB luciferase reporter assay; assay type: cell-based; conditions: Homo sapiens; SW480 cells stably transfected with NF-κB luciferase reporter gene, induced by LPS; mean ± SD (n = 3); read-out: NF-κB Activation IC50
Description: SW480-NF-κB cells were seeded at a density of 5 × 10^4 cells/well in 24-well plates and incubated with circumdatins with or without LPS stimulation for 6 h. The κB-dependent luciferase reporter activity in cell extracts was monitored using an automated microplate reader.

[3] = test system: BV-2 cells; assay: RT-PCR of TNF-α, IL-1β, iNOS and COX-2 mRNA in LPS-induced BV-2 cells; assay type: cell-based, murine; conditions: 1 μg/ml LPS, 10, 20, 50 μM, 24 h
Description: Total RNA was extracted using TRIzol reagent (Life Technologies, NY) and then reverse-transcribed into cDNA by reverse transcriptase (Invitrogen). mRNA expression of target genes iNOS, COX-2, IL-1β and TNF-α was quantified in comparison to housekeeping gene GAPDH using SYBR green detection method on ABI 7500 system (Applied Biosystems). The relative gene expression was calculated using comparative Ct (ΔΔCt) method. The following primers in Table 1 were used in this study.

[4] = test system: C. elegans CL4176; assay: qRT-PCR of ace-1, ace-2, F22E5.6 and ZC239.12 in CL4176; assay type: in vivo, Caenorhabditis elegans; conditions: CL4176, 36 h post temperature up-shift
Description: Related gene expression levels were detected as [Xin et al. (2013)] described. After treatment, CL4176 worms were collected and total RNA was extracted using TRIzol method. The cDNA was synthesized using cDNA synthesis kit (Invitrogen) according to manual instructions. The mRNA expression of target genes viz. F22E5.6, ZC239.12, ace-1 and ace-2 was quantified in comparison to housekeeping gene F23B2.13 using SYBR green detection method on ABI 7500 system (Applied Biosystems). The relative gene expression was calculated using comparative Ct (ΔΔCt) method. The following primers in Table 2 were used in this study.

[5] = target: T1, AChE in primary cortical neurons (Rattus norvegicus, UniProt P37136); assay: AChE activity in LPS-treated primary neurons (modified Ellman); assay type: cell-based; conditions: 1 μg/ml LPS, 1–100 μM, 48 h
T1 construct: primary cortical neurons were isolated from embryos of pregnant Sprague Dawley rats of E-18; endogenous in cells; host or cells: primary cortical neurons from E-18 Sprague Dawley rat embryos
T1 sequence (P37136 32-614): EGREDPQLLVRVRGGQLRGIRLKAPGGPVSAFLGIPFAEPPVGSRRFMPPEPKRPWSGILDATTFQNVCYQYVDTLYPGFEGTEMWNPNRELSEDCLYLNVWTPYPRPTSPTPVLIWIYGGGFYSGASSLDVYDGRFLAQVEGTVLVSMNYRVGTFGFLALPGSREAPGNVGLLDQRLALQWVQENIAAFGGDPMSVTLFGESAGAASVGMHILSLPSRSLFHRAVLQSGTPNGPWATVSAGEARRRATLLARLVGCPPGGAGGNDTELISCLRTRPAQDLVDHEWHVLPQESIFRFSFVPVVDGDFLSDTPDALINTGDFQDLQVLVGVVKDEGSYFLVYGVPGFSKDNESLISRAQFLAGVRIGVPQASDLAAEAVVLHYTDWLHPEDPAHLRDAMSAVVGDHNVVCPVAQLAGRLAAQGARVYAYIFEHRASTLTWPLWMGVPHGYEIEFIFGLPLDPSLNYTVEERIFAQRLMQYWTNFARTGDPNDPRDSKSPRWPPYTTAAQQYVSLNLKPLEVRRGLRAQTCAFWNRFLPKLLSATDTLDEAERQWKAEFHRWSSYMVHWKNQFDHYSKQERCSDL
Description: AChE activities in vitro and in vivo were assessed by a modified Ellman's spectrophotometric method ([Szwajgier, 2015]). Briefly, AChE (80 μl) in phosphate buffer (Na2HPO4/NaH2PO4, pH 8.0) and compound (20 μl) diluted in same phosphate buffer were added to 96 microplates as the reaction mixture. The mixture was incubated at 37°C for 30 min before addition of 10 μl 5,5′-dithiobis (2-nitrobenzoic acid) (DTNB) (3 mM) and 10 μl acetylthiocholine iodide (ATCI) (15 mM). After incubation for 20 min, the absorbance was detected at 412 nm using a microplate spectrophotometer (Thermo Scientifics, USA). […] The inhibitory rate of AChE was calculated, and the IC50 values were calculated by GraphPad Prism® 5.0 software (GraphPad Inc., San Diego, USA).

[6] = target: Recombinant AChE (Homo sapiens, UniProt P22303); assay: biochemical; conditions: SPR, 25°C, 1:1 Langmuir binding model; read-out: AChE Affinity Kd
Chain of Recombinant AChE (P22303 32-614): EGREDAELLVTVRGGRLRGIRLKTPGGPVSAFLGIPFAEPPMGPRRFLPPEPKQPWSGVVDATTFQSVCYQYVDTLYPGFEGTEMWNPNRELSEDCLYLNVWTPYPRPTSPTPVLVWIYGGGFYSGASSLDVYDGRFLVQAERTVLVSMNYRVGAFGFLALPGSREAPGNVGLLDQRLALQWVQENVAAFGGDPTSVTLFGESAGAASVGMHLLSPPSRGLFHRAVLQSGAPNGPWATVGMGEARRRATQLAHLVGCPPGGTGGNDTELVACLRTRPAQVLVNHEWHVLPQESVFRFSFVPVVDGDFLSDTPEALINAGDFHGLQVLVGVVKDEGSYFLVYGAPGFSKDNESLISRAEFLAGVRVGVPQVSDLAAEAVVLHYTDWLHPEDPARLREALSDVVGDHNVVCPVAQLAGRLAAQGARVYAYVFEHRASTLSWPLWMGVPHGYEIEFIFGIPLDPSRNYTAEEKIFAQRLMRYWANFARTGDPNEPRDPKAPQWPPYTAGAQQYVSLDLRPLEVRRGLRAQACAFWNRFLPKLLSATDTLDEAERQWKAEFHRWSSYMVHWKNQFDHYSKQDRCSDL
Description: The experiments for surface plasmon resonance (SPR) interaction were conducted at 25°C using the Biacore T200 system (GE Healthcare, Sweden). Recombinant AChE diluted in sodium acetate buffer (100 mM, pH 4.5) was used as the stock for the following experiments. CM5 sensor chips were coupled with AChE using an amine coupling kit (GE Healthcare, Buckinghamshire, UK). Thereafter, different concentrations of compounds were injected as analytes using PBS-P (10mM phosphate buffer with 2.7 mM KCl and 137 mM NaCl, 0.05% polysorbate 20, […]) as running buffer. For binding assays, the analytes were introduced with a 60 s contact time followed by a 60 s dissociation time at a flow rate of 45 μl/min. The surface was regenerated with 10 mM glycine (pH 3.0) for 30 s. The affinity constants were calculated using the 1:1 Langmuir binding model of Biacore evaluation software (T200 Version 1.0).

[7] = test system: BV-2 cells; assay: MTT cytotoxicity / cell survivability in BV-2 cells; assay type: cell-based, murine; conditions: 1 μg/ml LPS, doses 0–100 μM, 48 h
Description: In vitro cytotoxicity was detected using the MTT assay. Cells were treated with different concentrations of circumdatins in the presence or absence of LPS for 48 h. Then, MTT reagent was added to each well and the plates were further incubated at 37°C for 4 h. The absorbance was read at 570 nm using a microplate spectrophotometer (Thermo Scientifics, USA).
Cell surviability was detected using the MTT assay. Cells were seeded in 96-well plates and incubated overnight, following which the cells were treated with different concentrations of circumdatins with or without 1µg/mL of LPS for indicated time. Then, the cells were subsequently cultured with MTT and incubated for 4 hours at 37°C. Thereafter, the purple formazan dye was dissolved in DMSO and the absorbance was measured at 570 nm.

## COc1ccc2c(c1)C(=O)N1CCC[C@H]1c1nc3ccc(OC)cc3c(=O)n1-2 [circumdatin D]
[1]
  AChE activity elevated upon temperature upshift: significantly attenuated these changes in a dose-dependent manner
[2]
  IC50: 8.7 ± 1.3 µM
[3]
  iNOS and COX-2 mRNA expression levels (q-PCR): dose-dependently decreasing the expression levels of both iNOS and COX-2
  proinflammatory cytokines mRNA levels: significantly decreased proinflammatory cytokines
[4]
  AChE genes (ace-1, ace-2) and inflammation related genes (F22E5.6, ZC239.12) expression: inhibited temperature raise-induced AChE and inflammation-associated gene expressions
[5]
  LPS-induced AChE activity in primary neuronal cells: markedly reduced the LPS-induced AChE activities
[6]
  Kd: 1.9 µM
[7]
  cytotoxicity in the presence of LPS (MTT): did not induce significant cellular death
